Test results as given in US20260217767A1, “NOVEL A4B7 THIOETHER PEPTIDE DIMER ANTAGONISTS” (Protagonist Therapeutics, Inc., priority 2014, published 2026).
Where a SMILES comes first, the peptide text is derived from it.

Tests used:
[1] = Simulated Intestinal Fluid (SIF) Stability Assay; assay type: in vitro ADME; conditions: pig, 37° C., monomers, Table 6; for half-life at 22 μM: simulated intestinal fluid (SIF) with 1% porcine pancreatin, pH 6.5, porcine pancreatin; for half-life: porcine pancreatin
Outline: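 Percent peptide remaining over time was measured by LC-MS/MS as the peak-area ratio to internal standard, and a first-order decay fit gave half-life. Digests contained 22 μM peptide and 1% pancreatin in pH 6.5 FaSSIF buffer at 37° C. Aliquots were quenched in organic solvent with formic acid.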

rh integrin α4β7 = target: T1, rh integrin α4β7 (Homo sapiens, UniProt P13612+P26010); experiment: α4β7-MAdCAM Competition ELISA; assay type: binding; conditions: thioether monomer peptides, Table 6; read-out: ELISA A4B7
T1 construct: purchased R&D Systems 5397-A30
T1 sequence (P13612 34-977 limits assumed): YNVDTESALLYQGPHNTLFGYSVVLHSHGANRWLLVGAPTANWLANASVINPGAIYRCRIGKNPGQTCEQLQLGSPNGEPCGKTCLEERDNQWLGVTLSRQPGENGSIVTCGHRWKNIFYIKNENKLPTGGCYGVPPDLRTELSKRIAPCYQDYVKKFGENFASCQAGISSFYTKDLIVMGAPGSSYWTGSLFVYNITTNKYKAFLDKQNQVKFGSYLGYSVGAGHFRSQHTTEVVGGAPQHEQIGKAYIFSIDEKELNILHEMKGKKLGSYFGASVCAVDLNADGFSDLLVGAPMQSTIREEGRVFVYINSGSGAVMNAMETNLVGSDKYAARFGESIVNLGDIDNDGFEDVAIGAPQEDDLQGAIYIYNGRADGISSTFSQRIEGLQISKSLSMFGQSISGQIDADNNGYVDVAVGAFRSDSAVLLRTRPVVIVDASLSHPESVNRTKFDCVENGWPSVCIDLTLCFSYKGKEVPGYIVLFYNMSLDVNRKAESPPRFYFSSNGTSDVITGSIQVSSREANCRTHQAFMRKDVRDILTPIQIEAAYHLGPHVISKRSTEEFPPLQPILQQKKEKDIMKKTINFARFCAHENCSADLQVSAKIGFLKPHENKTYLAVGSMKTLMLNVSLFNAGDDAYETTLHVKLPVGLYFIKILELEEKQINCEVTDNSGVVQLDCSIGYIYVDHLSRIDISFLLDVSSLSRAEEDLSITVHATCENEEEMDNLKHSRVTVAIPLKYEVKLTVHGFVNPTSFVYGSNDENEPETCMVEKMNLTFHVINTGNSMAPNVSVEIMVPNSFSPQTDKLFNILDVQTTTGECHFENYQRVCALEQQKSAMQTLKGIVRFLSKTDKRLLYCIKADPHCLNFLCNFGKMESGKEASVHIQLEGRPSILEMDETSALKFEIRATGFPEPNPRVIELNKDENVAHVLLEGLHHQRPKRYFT
T1 sequence (P26010 20-723 limits assumed): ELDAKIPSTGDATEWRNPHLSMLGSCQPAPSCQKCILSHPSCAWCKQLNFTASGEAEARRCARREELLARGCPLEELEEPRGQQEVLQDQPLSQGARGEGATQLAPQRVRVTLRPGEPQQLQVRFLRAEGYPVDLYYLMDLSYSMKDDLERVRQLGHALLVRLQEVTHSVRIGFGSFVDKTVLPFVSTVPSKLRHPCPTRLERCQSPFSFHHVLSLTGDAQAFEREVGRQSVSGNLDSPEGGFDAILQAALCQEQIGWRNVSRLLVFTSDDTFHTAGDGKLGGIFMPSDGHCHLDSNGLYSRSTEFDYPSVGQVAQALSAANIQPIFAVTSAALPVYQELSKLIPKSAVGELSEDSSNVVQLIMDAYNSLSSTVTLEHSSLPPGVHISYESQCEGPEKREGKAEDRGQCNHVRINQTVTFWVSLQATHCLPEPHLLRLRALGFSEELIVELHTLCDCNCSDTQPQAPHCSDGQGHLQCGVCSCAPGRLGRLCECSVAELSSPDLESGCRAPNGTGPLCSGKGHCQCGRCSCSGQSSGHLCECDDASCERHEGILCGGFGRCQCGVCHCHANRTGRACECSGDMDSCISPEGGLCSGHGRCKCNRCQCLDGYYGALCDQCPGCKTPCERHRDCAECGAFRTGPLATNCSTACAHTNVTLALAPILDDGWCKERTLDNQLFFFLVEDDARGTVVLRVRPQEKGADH
Protocol: α4β7-MAdCAM Competition ELISA A nickel coated plate (Pierce #15442) was coated with rh integrin α4β[…] Systems #5397-A30) at 800 ng/well and incubated at room temperature with shaking for 1 hr. The solution was then removed by shaking and blocked with assay buffer (50 mM Tris-HCl pH7.6, 150 mM NaCl, 1 mM MnCl2 or MgCl2, 0.05% Tween-20 and 0.5% BSA) at 250 ul/well. The plate was then incubated at room temperature for 1 hr. Each well was washed 3 times with wash buffer (50 mM Tris-HCl pH7.6, 100 mM NaCl, 1 mM MnCl2 or MgCl2, 0.05% Tween-20). To each well was added 25 ul of a serial dilution (3-fold dilutions in assay buffer) of peptides starting at 20 μM. 25 ul of recombinant human MAdCAM-1 (R&D Systems #6056-MC) was then added to each well at a fixed concentration 20 nM. The final starting peptide concentration was 10 μM, and the final MAdCAM-1 concentration was 10 nM. The plates were then incubated at room temperature for 1 hr to reach binding equilibrium. The wells were then washed three times with wash buffer. 50 ul of mouse anti-human IgG1-HRP (Invitrogen #A10648) diluted in 1:2000 in assay buffer was then added to each well. The wells were incubated at room temperature for 45 min with shaking. The wells were then washed 3 times with wash buffer. 100 ul of TMB were then added to each well and closely observe during development time. The reaction was stopped with 2N H2SO4 and absorbance was read at 450 nm.

SMILES	half-life at 22 μM [1] [h]	IC50 (rh integrin α4β7) [nM]	half-life [1] [h]
CC(C)C[C@@H]1NC(=O)[C@H]([C@@H](C)O)NC(=O)[C@H](CC(=O)O)NC(=O)[C@H](CO)NC(=O)[C@H](CCCNC(=N)N)N(C)C(=O)CSC(C)(C)[C@@H](C(=O)N[C@@H](Cc2c[nH]c3ccccc23)C(=O)N[C@H](CCCCN)C(N)=O)NC1=O [compound 53]	> 3	100 to 1000	
CC(C)C[C@@H]1NC(=O)[C@H]([C@@H](C)O)NC(=O)[C@H](CC(=O)O)NC(=O)[C@H](CO)NC(=O)[C@H](CCCNC(=N)N)NC(=O)c2ccccc2CSC[C@@H](C(=O)N[C@@H](Cc2c[nH]c3ccccc23)C(=O)N[C@H](CCCCN)C(N)=O)NC1=O [compound 59]	< 0.333	100 to 1000	
CC(C)C[C@@H]1NC(=O)[C@H]([C@@H](C)O)NC(=O)[C@H](CC(=O)O)NC(=O)[C@H](CO)NC(=O)[C@H](CCCNC(=N)N)N(C)C(=O)c2ccccc2CSC(C)(C)[C@@H](C(=O)N[C@@H](Cc2ccc3ccccc3c2)C(=O)N[C@H](CCC(=O)O)C(=O)N[C@H](CCCCN)C(N)=O)NC1=O [compound 75] (HELM PEPTIDE1{[meR].S.D.T.L.[Pen].[O=C([C@H](Cc1ccc2ccccc2c1)N[*:1])[*:2]].[dE].[dK].[am]}|CHEM1{[O=C(c1ccccc1C[*:2])[*:1]]}$PEPTIDE1,CHEM1,1:R1-1:R1|PEPTIDE1,CHEM1,6:R3-1:R2$$$V2.0)	> 3	< 25	
CC(C)C[C@@H]1NC(=O)[C@H]([C@@H](C)O)NC(=O)[C@H](CC(=O)O)NC(=O)[C@H](CO)NC(=O)[C@H](CCCNC(=N)N)N(C)C(=O)c2ccccc2CSC(C)(C)[C@@H](C(=O)N[C@@H](Cc2ccc(C(F)(F)F)cc2)C(=O)N[C@@H](CCC(=O)O)C(=O)N[C@H](CCCCN)C(N)=O)NC1=O [compound 76] (HELM PEPTIDE1{[meR].S.D.T.L.[Pen].[O=C([C@H](Cc1ccc(C(F)(F)F)cc1)N[*:1])[*:2]].E.[dK].[am]}|CHEM1{[O=C(c1ccccc1C[*:2])[*:1]]}$PEPTIDE1,CHEM1,1:R1-1:R1|PEPTIDE1,CHEM1,6:R3-1:R2$$$V2.0)		< 25	> 3
CC(C)C[C@@H]1NC(=O)[C@H]([C@@H](C)O)NC(=O)[C@H](CC(=O)O)NC(=O)[C@H](CO)NC(=O)[C@H](CCCNC(=N)N)N(C)C(=O)c2ccccc2CSC(C)(C)[C@@H](C(=O)N[C@H](Cc2ccccc2)C(=O)N[C@@H](CCC(=O)O)C(=O)N[C@H](CCCCN)C(N)=O)NC1=O [compound 72] (HELM PEPTIDE1{[meR].S.D.T.L.[Pen].[dF].E.[dK].[am]}|CHEM1{[O=C(c1ccccc1C[*:2])[*:1]]}$PEPTIDE1,CHEM1,1:R1-1:R1|PEPTIDE1,CHEM1,6:R3-1:R2$$$V2.0)	> 3	< 25	
CC(C)C[C@@H]1NC(=O)[C@H]([C@@H](C)O)NC(=O)[C@H](CC(=O)O)NC(=O)[C@H](CO)NC(=O)[C@H](CCCNC(=N)N)N(C)C(=O)c2ccccc2CSC[C@H](C(=O)N[C@@H](Cc2c[nH]c3ccccc23)C(=O)N[C@@H](CCC(=O)O)CC(=O)N[C@H](CCCCN)C(N)=O)NC1=O [compound 66] (HELM PEPTIDE1{[meR].S.D.T.L.[dC].W.[O=C(O)CC[C@@H](CC(=O)[*:2])N[*:1]].[dK].[am]}|CHEM1{[O=C(c1ccccc1C[*:2])[*:1]]}$PEPTIDE1,CHEM1,1:R1-1:R1|PEPTIDE1,CHEM1,6:R3-1:R2$$$V2.0)		25 to 100	> 3
CC(C)C[C@@H]1NC(=O)[C@H]([C@@H](C)O)NC(=O)[C@H](CC(=O)O)NC(=O)[C@H](CO)NC(=O)[C@H](CCCNC(=N)N)N(C)C(=O)c2ccccc2CSC(C)(C)[C@@H](C(=O)N[C@@H](Cc2ccc3ccccc3c2)C(=O)N[C@@H](CCC(=O)O)CC(=O)N[C@H](CCCCN)C(N)=O)NC1=O [compound 70]	> 3	< 25	
CC(C)C[C@@H]1NC(=O)[C@H]([C@@H](C)O)NC(=O)[C@H](CC(=O)O)NC(=O)[C@H](CO)NC(=O)[C@H](CCCNC(=N)N)N(C)C(=O)c2ccccc2CSC(C)(C)[C@@H](C(=O)N[C@@H](Cc2cccc3ccccc23)C(=O)N[C@@H](CCC(=O)O)C(=O)N[C@H](CCCCN)C(N)=O)NC1=O [compound 77] (HELM PEPTIDE1{[meR].S.D.T.L.[Pen].[O=C([C@H](Cc1cccc2ccccc12)N[*:1])[*:2]].E.[dK].[am]}|CHEM1{[O=C(c1ccccc1C[*:2])[*:1]]}$PEPTIDE1,CHEM1,1:R1-1:R1|PEPTIDE1,CHEM1,6:R3-1:R2$$$V2.0)		< 25	1.47
CC(C)C[C@@H]1NC(=O)[C@H]([C@@H](C)O)NC(=O)[C@H](CC(=O)O)NC(=O)[C@H](CO)NC(=O)[C@H](CCCNC(=N)N)N(C)C(=O)c2ccccc2CSC(C)(C)[C@@H](C(=O)N[C@@H](Cc2ccccc2)C(=O)N[C@@H](CCC(=O)O)CC(=O)N[C@H](CCCCN)C(N)=O)NC1=O [compound 73] (HELM PEPTIDE1{[meR].S.D.T.L.[Pen].F.[O=C(O)CC[C@@H](CC(=O)[*:2])N[*:1]].[dK].[am]}|CHEM1{[O=C(c1ccccc1C[*:2])[*:1]]}$PEPTIDE1,CHEM1,1:R1-1:R1|PEPTIDE1,CHEM1,6:R3-1:R2$$$V2.0)	> 3	< 25	
CC(=O)NCCCC[C@@H](NC(=O)[C@@H](CCC(=O)O)NC(=O)[C@H](Cc1ccccc1)NC(=O)[C@H]1NC(=O)[C@H](CC(C)C)NC(=O)[C@H]([C@@H](C)O)NC(=O)[C@H](CC(=O)O)NC(=O)[C@H](CO)NC(=O)[C@H](CCCNC(=N)N)N(C)C(=O)c2ccccc2CSC1(C)C)C(N)=O [compound 87] (HELM PEPTIDE1{[meR].S.D.T.L.[Pen].F.[dE].[dK].[am]}|PEPTIDE2{[ac]}|CHEM1{[O=C(c1ccccc1C[*:2])[*:1]]}$PEPTIDE1,PEPTIDE2,9:R3-1:R2|PEPTIDE1,CHEM1,1:R1-1:R1|PEPTIDE1,CHEM1,6:R3-1:R2$$$V2.0)		< 25	
CC(C)C[C@@H]1NC(=O)[C@H]([C@@H](C)O)NC(=O)[C@H](CC(=O)O)NC(=O)[C@H](CO)NC(=O)[C@H](CCCNC(=N)N)N(C)C(=O)C(C)SC(C)(C)[C@@H](C(=O)N[C@@H](Cc2c[nH]c3ccccc23)C(=O)N[C@H](CCCCN)C(N)=O)NC1=O (single isomer, unassigned) [compound 54]		> 1000	
